Source: patent US11866450B2, “Modulators of Cystic Fibrosis Transmembrane Conductance regulator, pharmaceutical compositions, methods of treatment, and process for making the modulators” (priority 2018, dated 2024)

Target: CFTR-mediated chloride transport (Homo sapiens, UniProt P13569)
Assay type: cell-based
Details: enteroid cells incubated with test compound 18-24 hours, acute 10 μM forskolin and 300 nM Compound III; for Max. Activity: % of chloride transport with 3 μM Compound A, 3 μM Compound II and 300 nM acute Compound III triple combination control
Method in brief: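 Human intestinal enteroid cells incubated with compound 18–24 h at 37° C., then membrane potential dye (FLIPR) read 15 min after chloride-free stimulation with 10 μM forskolin, 100 μM IBMX and 300 nM Compound III. AUC expressed as % of triple-combination control (3 μM Compound A, 3 μM Compound II, 300 nM Compound III).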

Sequence of CFTR-mediated chloride transport (P13569 whole entry, looked up): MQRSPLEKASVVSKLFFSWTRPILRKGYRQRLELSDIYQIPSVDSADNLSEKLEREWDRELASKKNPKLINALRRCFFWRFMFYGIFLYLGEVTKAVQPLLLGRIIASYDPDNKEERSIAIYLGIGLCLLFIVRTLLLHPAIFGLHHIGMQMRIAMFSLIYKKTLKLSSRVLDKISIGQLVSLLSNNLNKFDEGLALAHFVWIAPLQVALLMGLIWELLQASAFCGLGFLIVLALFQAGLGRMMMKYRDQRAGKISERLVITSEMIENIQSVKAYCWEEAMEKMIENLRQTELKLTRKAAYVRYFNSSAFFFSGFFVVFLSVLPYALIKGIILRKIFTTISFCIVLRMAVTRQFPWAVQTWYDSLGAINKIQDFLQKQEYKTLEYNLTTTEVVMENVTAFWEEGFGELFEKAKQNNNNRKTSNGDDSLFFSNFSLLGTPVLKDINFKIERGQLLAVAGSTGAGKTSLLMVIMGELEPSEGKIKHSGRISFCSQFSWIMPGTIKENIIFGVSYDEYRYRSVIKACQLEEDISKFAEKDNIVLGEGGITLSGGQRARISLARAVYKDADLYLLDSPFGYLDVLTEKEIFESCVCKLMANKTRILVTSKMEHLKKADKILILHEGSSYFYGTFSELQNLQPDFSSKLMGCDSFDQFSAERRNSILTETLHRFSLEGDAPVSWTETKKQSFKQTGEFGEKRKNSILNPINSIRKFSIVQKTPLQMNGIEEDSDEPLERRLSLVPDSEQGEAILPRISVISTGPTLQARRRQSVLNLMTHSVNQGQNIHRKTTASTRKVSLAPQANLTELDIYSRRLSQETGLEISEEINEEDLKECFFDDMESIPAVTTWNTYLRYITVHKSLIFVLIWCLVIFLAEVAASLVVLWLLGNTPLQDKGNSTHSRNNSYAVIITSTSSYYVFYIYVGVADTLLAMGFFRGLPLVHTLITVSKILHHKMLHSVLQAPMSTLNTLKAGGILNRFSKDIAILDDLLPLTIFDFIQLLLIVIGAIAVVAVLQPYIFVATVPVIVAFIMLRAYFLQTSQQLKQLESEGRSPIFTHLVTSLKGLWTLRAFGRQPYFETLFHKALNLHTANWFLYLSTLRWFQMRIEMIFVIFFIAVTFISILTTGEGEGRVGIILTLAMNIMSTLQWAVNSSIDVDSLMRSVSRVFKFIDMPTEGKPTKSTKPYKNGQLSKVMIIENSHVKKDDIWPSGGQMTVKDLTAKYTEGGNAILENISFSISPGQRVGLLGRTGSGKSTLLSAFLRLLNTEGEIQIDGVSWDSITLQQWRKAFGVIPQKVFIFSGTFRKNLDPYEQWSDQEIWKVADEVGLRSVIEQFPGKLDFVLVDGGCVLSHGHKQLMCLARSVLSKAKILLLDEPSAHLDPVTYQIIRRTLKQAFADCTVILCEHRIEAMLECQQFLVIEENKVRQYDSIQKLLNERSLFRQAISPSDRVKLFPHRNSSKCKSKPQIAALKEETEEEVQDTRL

SMILES | EC50 [nM] | Max. Activity
CC1(C)C[C@@H]2CCCNc3cccc(n3)S(=O)(=O)NC(=O)c3ccc(N4CCC5(CCCCC5)C4=O)nc3N1C2 [Compound 222, (14S)-12,12-dimethyl-8-{1-oxo-2-azaspiro[4.5]decan-2-yl}-2λ^6-thia-3,9,11,18,23-pentaazatetracyclo[17.3.1.111,14.05,10]tetracosa-1(22),5,7,9,19(23),20-hexaene-2,2,4-trione] | < 1000 | ++ (++ is 30-60%)
CC1(C)C[C@H]2CCCCNc3cccc(n3)S(=O)(=O)NC(=O)c3ccc(-n4cc(OCCC5(C(F)(F)F)CC5)cn4)nc3N1C2 (single isomer, unassigned) [Compound 82, 12,12-Dimethyl-8-(4-{2-[1-(trifluoromethyl)cyclopropyl]ethoxy}-1H-pyrazol-1-yl)-2λ^6-thia-3,9,11,19,24-pentaazatetracyclo[18.3.1.111,14.05,10]pentacosa-1(23),5,7,9,20(24),21-hexaene-2,2,4-trione] | > 3000 | + (+ is <30%)
CC1(C)C[C@H]2CCCOc3ccc(cc3)S(=O)(=O)NC(=O)c3ccc(-n4ccc(OCCC5(C(F)(F)F)CC5)n4)nc3N1C2 (single isomer, unassigned) [Compound 99, 12,12-dimethyl-8-(3-{2-[1-(trifluoromethyl)cyclopropyl]ethoxy}-1H-pyrazol-1-yl)-18-oxa-2λ^6-thia-3,9,11-triazatetracyclo[17.2.2.111,14.05,10]tetracosa-1(21),5,7,9,19,22-hexaene-2,2,4-trione] | < 1000 | +++ (+++ is >60%)
Cc1cc2nn1CCC[C@H]1CN(c3nc(-n4ccc(OCCC5(C(F)(F)F)CC5)n4)ccc3C(=O)NS2(=O)=O)C(C)(C)C1 (single isomer, unassigned) [Compound 151, 13,20,20-trimethyl-4-(3-{2-[1-(trifluoromethyl)cyclopropyl]ethoxy}-1H-pyrazol-1-yl)-10λ^6-thia-1,3,9,14,22-pentaazatetracyclo[16.2.1.111,14.02,7]docosa-2,4,6,11(22),12-pentaene-8,10,10-trione] | < 1000 | +++ (+++ is >60%)
Cc1c2cnn1CCCC1CN(c3nc(-n4ccc(OCC(C)(C)C(F)(F)F)n4)ccc3C(=O)NS2(=O)=O)C(C)(C)C1 (single isomer, unassigned) [Compound 289, 20,20,22-Trimethyl-4-[3-(3,3,3-trifluoro-2,2-dimethylpropoxy)-1H-pyrazol-1-yl]-10λ^6-thia-1,3,9,13,14-pentaazatetracyclo[16.2.1.111,14.02,7]docosa-2,4,6,11(22),12-pentaene-8,10,10-trione] | < 1000 | ++ (++ is 30-60%)
CN1CCC[C@H]2CN(c3nc(-n4ccc(OCCC5(C(F)(F)F)CC5)n4)ccc3C(=O)NS(=O)(=O)c3cccc1n3)C(C)(C)C2 (single isomer, unassigned) [Compound 138, 12,12,18-Trimethyl-8-(3-{2-[1-(trifluoromethyl)cyclopropyl]ethoxy}-1H-pyrazol-1-yl)-2λ^6-thia-3,9,11,18,23-pentaazatetracyclo[17.3.1.111,14.05,10]tetracosa-1(23),5(10),6,8,19,21-hexaene-2,2,4-trione] | > 3000 | + (+ is <30%)
CC1(C)C[C@@H]2CCCNc3cccc(n3)S(=O)(=O)NC(=O)c3ccc(-n4ccc(OC[C@@H](O)CC5(C(F)(F)F)CC5)n4)nc3N1C2 (single isomer, unassigned) [Compound 284] | < 1000 | +++ (+++ is >60%)
CC(C)(C)CC[C@H]1CCN(c2ccc3c(n2)N2C[C@@H](CCCNc4cccc(n4)S(=O)(=O)NC3=O)CC2(C)C)C1=O (single isomer, unassigned) [Compound 126] | < 1000 | ++ (++ is 30-60%)
[2H]c1ccc2nc1NCCC[C@@H]1CN(c3nc(-n4ccc(OCC([2H])([2H])C5C6(CC6)C56CC6)n4)ccc3C(=O)NS2(=O)=O)C(C)(C)C1 [Compound 298, (14S)-8-[3-(2-{dispiro[2.0.2.1]heptan-7-yl}-2,2-dideuterio-ethoxy)-1H-pyrazol-1-yl]-12,12-dimethyl(20-deuterio)-2λ^6-thia-3,9,11,18,23-pentaazatetracyclo[17.3.1.111,14.05,10]tetracosa-1(23),5,7,9,19,21-hexaene-2,2,4-trione] | < 1000 | +++ (+++ is >60%)
CC1(C)C[C@H]2CCCCc3ccc(cc3)S(=O)(=O)NC(=O)c3ccc(-n4ccc(OCCC5(C(F)(F)F)CC5)n4)nc3N1C2 (single isomer, unassigned) [Compound 54, 12,12-Dimethyl-8-(3-{2-[1-(trifluoromethyl)cyclopropyl]ethoxy}-1H-pyrazol-1-yl)-2λ^6-thia-3,9,11-triazatetracyclo[17.2.2.111,14.05,10]tetracosa-1(21),5,7,9,19,22-hexaene-2,2,4-trione] | 1000 to 3000 | ++ (++ is 30-60%)
CC1(C)CC2CCCNc3cccc(n3)S(=N)(=O)NC(=O)c3ccc(-n4ccc(OCCC5(C(F)(F)F)CC5)n4)nc3N1C2 (centres unmarked) [Compound 263, 2-imino-12,12-dimethyl-8-(3-{2-[1-(trifluoromethyl)cyclopropyl]ethoxy}-1H-pyrazol-1-yl)-2λ^6-thia-3,9,11,18,23-pentaazatetracyclo[17.3.1.111,14.05,10]tetracosa-1(23),5,7,9,19,21-hexaene-2,4-dione] | < 1000 | ++ (++ is 30-60%)
CN1CCC[C@H]2CN(c3nc(-n4ccc(OCCC(C5CC5)C5CC5)n4)ccc3C(=O)NS(=O)(=O)c3cccc1n3)C(C)(C)C2 (single isomer, unassigned) [Compound 204, 8-[3-(3,3-dicyclopropylpropoxy)-1H-pyrazol-1-yl]-12,12,18-trimethyl-2λ^6-thia-3,9,11,18,23-pentaazatetracyclo[17.3.1.111,14.05,10]tetracosa-1(22),5,7,9,19(23),20-hexaene-2,2,4-trione] | > 3000 | + (+ is <30%)
C[C@@H]1CC[C@H]2CN(c3nc(N4CCN(CCC(C)(C)C)C4=O)ccc3C(=O)NS(=O)(=O)c3cccc(n3)N1)C(C)(C)C2 (single isomer, unassigned) [Compound 216, 8-[3-(3,3-dimethylbutyl)-2-oxoimidazolidin-1-yl]-12,12,17-trimethyl-2λ^6-thia-3,9,11,18,23-pentaazatetracyclo[17.3.1.111,14.05,10]tetracosa-1(22),5,7,9,19(23),20-hexaene-2,2,4-trione] | < 1000 | +++ (+++ is >60%)
CC(C)(C)CCC1C(=O)N(c2ccc3c(n2)N2C[C@@H](CCCNc4cccc(n4)S(=O)(=O)NC3=O)CC2(C)C)CC1(C)C (stereo partly drawn) [Compound 98, (14S)-8-[3-(3,3-Dimethylbutyl)-4,4-dimethyl-2-oxopyrrolidin-1-yl]-12,12-dimethyl-2λ^6-thia-3,9,11,18,23-pentaazatetracyclo[17.3.1.111,14.05,10]tetracosa-1(22),5,7,9,19(23),20-hexaene-2,2,4-trione] | < 1000 | ++ (++ is 30-60%)
CC1CCC2CN(c3nc(N4CCN(CCC(C)(C)C)C4=O)ccc3C(=O)NS(=O)(=O)c3cccc(n3)N1)C(C)(C)C2 (centres unmarked) [Compound 210, 8-[3-(3,3-dimethylbutyl)-2-oxoimidazolidin-1-yl]-12,12,17-trimethyl-2λ^6-thia-3,9,11,18,23-pentaazatetracyclo[17.3.1.111,14.05,10]tetracosa-1(22),5,7,9,19(23),20-hexaene-2,2,4-trione] | < 1000 | ++ (++ is 30-60%)
C[C@@H]1CC[C@H]2CN(c3nc(-n4ccc(OCCC5(C(F)(F)F)CC5)n4)ccc3C(=O)NS(=O)(=O)c3cccc(n3)N1)C(C)(C)C2 (single isomer, unassigned) [Compound 58, 12,12,17-trimethyl-8-(3-{2-[1-(trifluoromethyl)cyclopropyl]ethoxy}-1H-pyrazol-1-yl)-2λ^6-thia-3,9,11,18,23-pentaazatetracyclo[17.3.1.111,14.05,10]tetracosa-1(23),5(10),6,8,19,21-hexaene-2,2,4-trione] | < 1000 | + (+ is <30%)
CC1(C)C[C@@H]2CCCNc3cccc(n3)S(=O)(=O)NC(=O)c3ccc(-n4ccc(OCC[C@@H](O)C5(C(F)(F)F)CC5)n4)nc3N1C2 (single isomer, unassigned) [Compound 296] | < 1000 | +++ (+++ is >60%)
Cc1ccc2nc1S(=O)(=O)NC(=O)c1ccc(-n3ccc(OCCC4(C(F)(F)F)CC4)n3)nc1N1C[C@H](CCCN2)CC1(C)C (single isomer, unassigned) [Compound 148, 12,12,22-trimethyl-8-(3-{2-[1-(trifluoromethyl)cyclopropyl]ethoxy}-1H-pyrazol-1-yl)-2λ^6-thia-3,9,11,18,23-pentaazatetracyclo[17.3.1.111,14.05,10]tetracosa-1(23),5(10),6,8,19,21-hexaene-2,2,4-trione] | > 3000 | + (+ is <30%)
CC1(C)C[C@H]2CCCCc3cccc(c3)S(=O)(=O)NC(=O)c3ccc(-n4ccc(OCCC5(C(F)(F)F)CC5)n4)nc3N1C2 (single isomer, unassigned) [Compound 57, 12,12-dimethyl-8-(3-{2-[1-(trifluoromethyl)cyclopropyl]ethoxy}-1H-pyrazol-1-yl)-2λ^6-thia-3,9,11-triazatetracyclo[17.3.1.111,14.05,10]tetracosa-1(22),5,7,9,19(23),20-hexaene-2,2,4-trione] | < 1000 | ++ (++ is 30-60%)
